One data set concerns HIV. Put plainly: Antiviral activity against HIV in HIV-infected MT-4 cells (MTT method). The format is cell-based, human immunodeficiency virus. Particulars: for EC50 (concentration at which cell death due to HIV infection is 50% inhibited): HIV-infected MT-4 cells, MOI 0.001, 37° C., 5 days, MTT method. The procedure:
The antiviral activity-against HIV of the polypeptide (1) synthesized in Example 1 as well as polypeptides (2), (3), (4), (7), (12), (13), (14), (20), (21) and (26) was tested and evaluated according to the following method.
(§1) HIV-infected MT-4 cells (2.5×10^4 cells/well, multiplicity of infection (MOI): 0.001) immediately after infection were added together with the test substance with various changes of the concentration to a 96-well microtitre plate. After incubation at 37° C. for 5 days in a CO2 incubator, the number of survivor cells was measured by the MTT method [Pauwels et al.; J. Virol. Methods, 20, 309-321 (1988)]. The antiviral activity is expressed as a concentration at which cell death due to HIV infection is 50% inhibited (EC50 : 50% effective concentration). On the other hand, in order to know the cytotoxicity of the test substance on the MT-4 cells, virus-noninfected cells are incubated, likewise as above, together with the test compound with various changes of the concentration. The cytotoxicity is expressed as 50% cytotoxic concentration […] due to the test substance. Further, the rough ratio of CC50 to EC50 (CC50 /EC50) is expressed as an effective ratio (SI=selectivity index).
On the technique in general: Tetrazolium assays rely on reduction of a dye to a coloured formazan, in cell work by metabolically active cells.

A further data set relates to MT-4 cells. Put plainly: Cytotoxicity on virus-noninfected MT-4 cells (MTT method). In kind it is cell-based. Particulars: 37° C., 5 days. The procedure: as §1

Values after ≈ are worked out from the molar mass of the structure shown. Positions of bridges follow the written chain, without caps; N, C: chain ends. Residues, ends and D or L forms follow the SMILES beside them. No end group written: not given here.

As for `N=C(N)NCCC[C@H](NC(=O)[C@@H]1CSSC[C@H](NC(=O)[C@H](Cc2c[nH]c3ccccc23)NC(=O)[C@H](CCCNC(=N)N)NC(=O)[C@@H](N)CCCNC(=N)N)C(=O)N[C@@H](Cc2ccc(O)cc2)C(=O)N[C@@H](CCCNC(=N)N)C(=O)N[C@@H](CCCCN)C(=O)N[C@H]2CSSC[C@H](NC(=O)[C@H](Cc3ccccc3)NC(=O)CNC(=O)[C@H](CCCCN)NC(=O)[C@H](Cc3ccccc3)NC2=O)C(=O)N[C@@H](Cc2ccc(O)cc2)C(=O)N[C@@H](CCCNC(=N)N)C(=O)N[C@@H](CCCCN)C(=O)N1)C(N)=O` [polypeptide (20), ArgArgTrpCysTyrArgLysCysPheLysGlyPheCysTyrArgLysCysArgNH2] (H-RRWCYRKCFKGFCYRKCR-NH2; disulfide 4-17, 8-13; N-terminus assumed), the “EC50 (concentration at which cell death due to HIV infection is 50% inhibited)” value with HIV was 0.01 µg/mL (≈ 0.00407 µM). Moreover, the “CC50 (50% cytotoxic concentration)” value in the data set with MT-4 cells was 54 µg/mL (≈ 22 µM).

As to `N=C(N)NCCC[C@H](NC(=O)[C@@H]1CSSC[C@H](NC(=O)[C@H](Cc2c[nH]c3ccccc23)NC(=O)[C@@H](N)CCCNC(=N)N)C(=O)N[C@@H](Cc2ccc(O)cc2)C(=O)N[C@@H](CCCNC(=N)N)C(=O)N[C@@H](CCCCN)C(=O)N[C@H]2CSSC[C@H](NC(=O)[C@H](Cc3ccccc3)NC(=O)CNC(=O)[C@H](CCCCN)NC(=O)[C@H](Cc3ccccc3)NC2=O)C(=O)N[C@@H](Cc2ccc(O)cc2)C(=O)N[C@@H](CCCNC(=N)N)C(=O)N[C@@H](CCCCN)C(=O)N1)C(N)=O` [polypeptide (21), ArgTrpCysTyrArgLysCysPheLysGlyPheCysTyrArgLysCysArgNH2] (H-RWCYRKCFKGFCYRKCR-NH2; disulfide 3-16, 7-12; N-terminus assumed), in the data set on HIV, the “EC50 (concentration at which cell death due to HIV infection is 50% inhibited)” value worked out at 0.08 µg/mL (≈ 0.0348 µM). The “CC50 (50% cytotoxic concentration)” value in the data set on MT-4 cells is 53 µg/mL (≈ 23.1 µM).

`N=C(N)NCCC[C@H](NC(=O)[C@@H]1CSSC[C@H](NC(=O)[C@H](Cc2c[nH]c3ccccc23)NC(=O)[C@@H](N)CCCNC(=N)N)C(=O)N[C@@H](Cc2ccc(O)cc2)C(=O)N[C@@H](CCCNC(=N)N)C(=O)N[C@@H](CCCCN)C(=O)N[C@H]2CSSC[C@H](NC(=O)[C@H](Cc3ccc(O)cc3)NC(=O)CNC(=O)[C@H](CCCCN)NC(=O)[C@H](Cc3ccc(O)cc3)NC2=O)C(=O)N[C@@H](Cc2ccc(O)cc2)C(=O)N[C@@H](CCCNC(=N)N)C(=O)N[C@@H](CCCCN)C(=O)N1)C(N)=O` [polypeptide (26), ArgTrpCysTyrArgLysCysTyrLysGlyTyrCysTyrArgLysCysArgNH2] (H-RWCYRKCYKGYCYRKCR-NH2; disulfide 3-16, 7-12; N-terminus assumed): in the data set with HIV, the “EC50 (concentration at which cell death due to HIV infection is 50% inhibited)” value turned out to be 0.18 µg/mL (≈ 0.0772 µM). The “selectivity in killing HIV infected cells (in words)” value in the data set on HIV (MT-4 cells, Table III) is given as “particularly selective”. Besides, the “selectivity index higher than for any of the known high endotoxin affinity compounds” value in the data set with HIV (compared with Tachyplesins and Polyphemusins of Table III) is “at least 7 fold”. In addition, the “CC50 (50% cytotoxic concentration)” value in the data set with MT-4 cells came out at 165 µg/mL (≈ 70.8 µM).

“ArgArgTyrCysTyrArgLysCysTyrLysGlyTyrCysTrpArgLysCysArgNH2 (RRYCYRKCYKGYCWRKCR-NH2; cysteine pairing not given here) [polypeptide (7)]”: the “EC50 (concentration at which cell death due to HIV infection is 50% inhibited)” value in the data set with HIV was 0.36 µg/mL. Moreover, the “SI (CC50 /EC50)” value in the data set with HIV (rough ratio of CC50 to EC50, MT-4 cells) amounted to 278. The “CC50 (50% cytotoxic concentration)” value in the data set with MT-4 cells turned out to be 100 µg/mL.

The values are drawn from patent publication US5449752A, “Polypeptides with affinity to lipopolysaccharides and their uses” (Seikagaku Kogyo K.K., priority 1991, dated 1995).
